Results: PubChem BioAssay AID1963845 (Molecular Pharmacology Branch, DTP, NCI, 2024)

Test system: 429239-143-T-J1-PDC complex spheroid viability
Experiment: Anticancer human tumor 429239-143-T-J1-PDC patient-derived small cell lung carcinoma cell line growth inhibition [POLQ]
Conditions: for IC50: curve of first compound; for viability, T/C: stronger effect = lower value
Method in brief: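 PDC + HUVEC + MSC complex spheroids; POLQ inhibitors ± partner drugs; top conc. at/near clinical Cmax, else 10 microM (SN-38 1 microM), half-log dilutions; 37 degrees C, 5% CO2.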

[1] = second compound 0.0316 µM, first compound 0.0316 µM
[2] = second compound 0.0316 µM, first compound 0.1 µM
[3] = second compound 0.0316 µM, first compound 0.316 µM
[4] = second compound 0.0316 µM, first compound 1 µM
[5] = second compound 0.0316 µM, first compound 3.16 µM
[6] = second compound 0.0316 µM, first compound 10 µM
[7] = second compound 0.1 µM, first compound 0.0316 µM
[8] = second compound 0.1 µM, first compound 0.1 µM
[9] = second compound 0.1 µM, first compound 0.316 µM
[10] = second compound 0.1 µM, first compound 1 µM
[11] = second compound 0.1 µM, first compound 3.16 µM
[12] = second compound 0.1 µM, first compound 10 µM
[13] = second compound 0.316 µM, first compound 0.0316 µM
[14] = second compound 0.316 µM, first compound 0.1 µM
[15] = second compound 0.316 µM, first compound 0.316 µM
[16] = second compound 0.316 µM, first compound 1 µM
[17] = second compound 0.316 µM, first compound 3.16 µM
[18] = second compound 0.316 µM, first compound 10 µM
[19] = second compound 1 µM, first compound 0.0316 µM
[20] = second compound 1 µM, first compound 0.1 µM
[21] = second compound 1 µM, first compound 0.316 µM
[22] = second compound 1 µM, first compound 1 µM
[23] = second compound 1 µM, first compound 3.16 µM
[24] = second compound 1 µM, first compound 10 µM
[25] = second compound 3.16 µM, first compound 0.0316 µM
[26] = second compound 3.16 µM, first compound 0.1 µM
[27] = second compound 3.16 µM, first compound 0.316 µM
[28] = second compound 3.16 µM, first compound 1 µM
[29] = second compound 3.16 µM, first compound 3.16 µM
[30] = second compound 3.16 µM, first compound 10 µM
[31] = second compound 10 µM, first compound 0.0316 µM
[32] = second compound 10 µM, first compound 0.1 µM
[33] = second compound 10 µM, first compound 0.316 µM
[34] = second compound 10 µM, first compound 1 µM
[35] = second compound 10 µM, first compound 3.16 µM
[36] = second compound 10 µM, first compound 10 µM
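Further: luminescence signal used as surrogate measure of viable cells; spheroids exposed to compounds for seven days before readout.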
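Wherever viability, T/C is given: 100% = DMSO vehicle control viability as luminescence relative to vehicle.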

CCc1cc2c(N3CCc4c(cc(Cn5ccnc5)cc4-c4cn(C)nc4C(F)(F)F)C3=O)ccnc2c(OC)n1 + COC1C(OC(N)=O)C(O)C(Oc2ccc3c(O)c(NC(=O)c4ccc(O)c(CC=C(C)C)c4)c(=O)oc3c2C)OC1(C)C
IC50 (second compound 0.0316 µM): 2760 nM
IC50 (second compound 0.1 µM): 2630 nM
IC50 (second compound 0.316 µM): 2660 nM
IC50 (second compound 1 µM): 2270 nM
IC50 (second compound 3.16 µM): 1720 nM
IC50 (second compound 10 µM): 843 nM
viability, T/C [1]: 93.4%
viability, T/C [2]: 96.9%
viability, T/C [3]: 71.1%
viability, T/C [4]: 68.2%
viability, T/C [5]: 45.8%
viability, T/C [6]: 39.6%
viability, T/C [7]: 107%
viability, T/C [8]: 93%
viability, T/C [9]: 69.5%
viability, T/C [10]: 74%
viability, T/C [11]: 42.3%
viability, T/C [12]: 32.6%
viability, T/C [13]: 86.2%
viability, T/C [14]: 74.3%
viability, T/C [15]: 73.5%
viability, T/C [16]: 65.5%
viability, T/C [17]: 45.1%
viability, T/C [18]: 33.4%
viability, T/C [19]: 89.7%
viability, T/C [20]: 83.9%
viability, T/C [21]: 61.8%
viability, T/C [22]: 62%
viability, T/C [23]: 49.2%
viability, T/C [24]: 32.8%
viability, T/C [25]: 96.7%
viability, T/C [26]: 74.8%
viability, T/C [27]: 71.5%
viability, T/C [28]: 50.5%
viability, T/C [29]: 46.4%
viability, T/C [30]: 37.3%
viability, T/C [31]: 91.8%
viability, T/C [32]: 85.7%
viability, T/C [33]: 67.8%
viability, T/C [34]: 46.7%
viability, T/C [35]: 40.2%
viability, T/C [36]: 39.6%

CC1COCCN1c1cc(C2(S(C)(=N)=O)CC2)nc(-c2ccnc3[nH]ccc23)n1 (stereo not drawn) + Nc1ccc(C#CCN(C(=O)Cc2ncc(C(F)(F)F)cc2C(F)(F)F)c2ccc(F)cc2)nn1
IC50 (second compound 0.0316 µM): > 10000 nM
IC50 (second compound 0.1 µM): 9980 nM
IC50 (second compound 0.316 µM): 9920 nM
IC50 (second compound 1 µM): > 10000 nM
IC50 (second compound 3.16 µM): 8710 nM
IC50 (second compound 10 µM): 7190 nM
viability, T/C [1]: 90.4%
viability, T/C [2]: 105%
viability, T/C [3]: 100%
viability, T/C [4]: 91%
viability, T/C [5]: 80.4%
viability, T/C [6]: 53.3%
viability, T/C [7]: 109%
viability, T/C [8]: 104%
viability, T/C [9]: 94.6%
viability, T/C [10]: 95.2%
viability, T/C [11]: 84.8%
viability, T/C [12]: 49%
viability, T/C [13]: 99.9%
viability, T/C [14]: 97.7%
viability, T/C [15]: 97.2%
viability, T/C [16]: 92.5%
viability, T/C [17]: 77.2%
viability, T/C [18]: 49.6%
viability, T/C [19]: 113%
viability, T/C [20]: 91.2%
viability, T/C [21]: 90.2%
viability, T/C [22]: 90.2%
viability, T/C [23]: 79.2%
viability, T/C [24]: 51.6%
viability, T/C [25]: 99.1%
viability, T/C [26]: 86.8%
viability, T/C [27]: 90.7%
viability, T/C [28]: 95.2%
viability, T/C [29]: 79.6%
viability, T/C [30]: 46%
viability, T/C [31]: 95.5%
viability, T/C [32]: 91.4%
viability, T/C [33]: 101%
viability, T/C [34]: 83.9%
viability, T/C [35]: 79.7%
viability, T/C [36]: 38.5%

Nc1ccn(C2OC(CO)C(O)C2(F)F)c(=O)n1 (stereo not drawn) + Cc1cccc(N(C)C(=O)C2C(O)CCN2c2nc(C)cc(C(F)(F)F)c2C#N)c1
IC50 (second compound 0.0316 µM): < 31.6 nM
IC50 (second compound 0.1 µM): < 31.6 nM
IC50 (second compound 0.316 µM): < 31.6 nM
IC50 (second compound 1 µM): < 31.6 nM
IC50 (second compound 3.16 µM): < 31.6 nM
IC50 (second compound 10 µM): < 31.6 nM
viability, T/C [1]: 19.2%
viability, T/C [2]: 20.4%
viability, T/C [3]: 17.1%
viability, T/C [4]: 18%
viability, T/C [5]: 18.3%
viability, T/C [6]: 17.3%
viability, T/C [7]: 20.3%
viability, T/C [8]: 20%
viability, T/C [9]: 15.1%
viability, T/C [10]: 20.4%
viability, T/C [11]: 18%
viability, T/C [12]: 16.5%
viability, T/C [13]: 18.5%
viability, T/C [14]: 16.1%
viability, T/C [15]: 18.6%
viability, T/C [16]: 20.8%
viability, T/C [17]: 19.3%
viability, T/C [18]: 17.1%
viability, T/C [19]: 21.8%
viability, T/C [20]: 16.5%
viability, T/C [21]: 18.2%
viability, T/C [22]: 16.6%
viability, T/C [23]: 17.2%
viability, T/C [24]: 17.5%
viability, T/C [25]: 25.2%
viability, T/C [26]: 17.2%
viability, T/C [27]: 21.9%
viability, T/C [28]: 18.5%
viability, T/C [29]: 15.5%
viability, T/C [30]: 18.3%
viability, T/C [31]: 24.9%
viability, T/C [32]: 15.6%
viability, T/C [33]: 20.8%
viability, T/C [34]: 17.9%
viability, T/C [35]: 20.2%
viability, T/C [36]: 19.4%

CC1COCCN1c1cc(-c2ccnn2C)c2ccnc(-c3ccn[nH]3)c2n1 (stereo not drawn) + Cc1cccc(N(C)C(=O)C2C(O)CCN2c2nc(C)cc(C(F)(F)F)c2C#N)c1
IC50 (second compound 0.0316 µM): 135 nM
IC50 (second compound 0.1 µM): 121 nM
IC50 (second compound 0.316 µM): 128 nM
IC50 (second compound 1 µM): 88.5 nM
IC50 (second compound 3.16 µM): 90.9 nM
IC50 (second compound 10 µM): 106 nM
viability, T/C [1]: 88.1%
viability, T/C [2]: 54.9%
viability, T/C [3]: 34.8%
viability, T/C [4]: 15.2%
viability, T/C [5]: 9.81%
viability, T/C [6]: 10.9%
viability, T/C [7]: 83.7%
viability, T/C [8]: 54.4%
viability, T/C [9]: 26.7%
viability, T/C [10]: 11.2%
viability, T/C [11]: 9.92%
viability, T/C [12]: 10.2%
viability, T/C [13]: 82.1%
viability, T/C [14]: 55.4%
viability, T/C [15]: 29.9%
viability, T/C [16]: 12.9%
viability, T/C [17]: 9.82%
viability, T/C [18]: 8.22%
viability, T/C [19]: 86.3%
viability, T/C [20]: 44.1%
viability, T/C [21]: 28.4%
viability, T/C [22]: 13.8%
viability, T/C [23]: 11.9%
viability, T/C [24]: 9.85%
viability, T/C [25]: 77.9%
viability, T/C [26]: 44.1%
viability, T/C [27]: 35%
viability, T/C [28]: 16.1%
viability, T/C [29]: 11.2%
viability, T/C [30]: 10.4%
viability, T/C [31]: 77.4%
viability, T/C [32]: 50.7%
viability, T/C [33]: 30.7%
viability, T/C [34]: 17.7%
viability, T/C [35]: 11.7%
viability, T/C [36]: 9.99%
